Measurements published in article PMC11391541, “Target-Directed Dynamic Combinatorial Chemistry Affords Binders of Mycobacterium tuberculosis IspE” (ACS Omega, 2024).

Legend:
MtbIspE [1] = target: T1, MtbIspE (Mycobacterium tuberculosis, UniProt P9WKG7); assay: target-directed dynamic combinatorial chemistry (tdDCC), amplification of acylhydrazones in protein-templated vs blank DCL (HPLC-MS/MS, UV 310 nm); format: binding
Protocol: In this study, we used MtbIspE as target protein and the reversible reaction of hydrazides and aldehydes to form dynamic combinatorial libraries (DCLs) of acylhydrazones. […] To accelerate the reaction at neutral pH, aniline was used as nucleophilic catalyst activating the aldehydes.[2],[4],[19] We analyzed the protein’s effect on the DCLs by comparing HPLC-MS/MS data of blank vs protein-templated (PT) experiments. The experiments spanned 3 days, with periodic sampling (every 2 h, followed by two samples per day after 8 h). The addition of NaOH to raise the pH and halt the reactions ensured the sample composition was preserved for analysis.[19] Templated experiments were conducted in duplicate, and the protein was denatured and removed prior to HPLC-MS/MS analysis.
The tdDCC hits and thus potential MtbIspE binders are amplified in the PT experiment compared to the blank experiment. The first step in the analysis of DCLs is the determination of the equilibrium since the amplification factors need to be calculated when the concentration of products is stable. To determine the evolution of the possible products, it is important to measure the characteristic UV absorbance of the acylhydrazones linker (310 nm) during the HPLC-MS/MS run. The resulting UV peaks are assigned to each product using the MS data (Figures S3–S6). The sum of all peak areas is normalized to 100% in order to obtain the respective relative peak area (RPA) for each product. The RPA values represent relative concentrations, determined at each time point of the blank experiment until the values stabilize. […] However, the rest of the compounds are out of range, making a visual inspection difficult. […] The other three libraries behaved in the same way, reaching equilibrium within 24 h and also maintained stable concentrations beyond (Figures S7–S9). To determine the tdDCC hits, we compared the RPAs of the PT experiments to the blanks at 24 h and set a threshold of at least 50% increase in compound formation. In total, 11 acylhydrazones passed our criteria, with amplification factors ranging from […] to 15.5, qualifying them for resynthesis and further evaluation (Figure 3). During the analysis of chromatograms, challenges arose concerning product identification. Some compound peaks were not neatly separated, forcing us to consider them in clusters, others presented two peaks, likely due to isomers, and were considered separately in our evaluation. Lastly, some compounds were detected by MS, but their respective UV signal interfered with the injection peak or was too low for integration (<1%), both in the blank and PT experiments. Consequently, we excluded these compounds from the analysis (Figure S3–S6).
To a well of a 24-well plate, containing Tris buffer (pH 7.0) were added hydrazides (300 μM each, in DMSO), aldehydes (100 μM each, in DMSO), aniline (20 mM, in DMSO), the protein MtbIspE (25 or 40 μM in Tris buffer at pH 7.0), and an additional amount of DMSO to reach a final concentration of 5% in the DCL with 0.5 mL of end-volume. The DCL was allowed to mix on a plate shaker at room temperature and was frequently monitored via LCMS-MS. For analysis, 30 μL of the corresponding library was mixed with 42 μL acetonitrile and 3 μL of NaOH (1 M), the mixture was centrifuged, and the supernatant was used for the analysis. PT experiments were run in duplicates and the protein was omitted for the blank experiments.
High-resolution mass (HRMS) of final products was determined by HPLC-MS/MS using a Thermo Scientific Q Exactive Focus Orbitrap LC -MS/MS system. All compounds were analyzed for purity by LCMS on Acquity UPLC-SQD system from Waters with a gradient elution of Water (Formic acid 0.1%)/Acetonitrile on an HSS - T3 column (2.1 x 50 mm, Waters), 1.8 µm, at 30°C, PDA detection between 240 -320 nm, and MS detection by simultaneous ES+/ES- ionization in a mass range of 150 -800. The flow is set to 0.9 ml/min, and the […]
gradient time is 1.5 min. […]

MtbIspE [2] = target: T1, MtbIspE; assay: MtbIspE binding study via thermal shift assay; settings: read-out: MtbIspE ΔTm at 20 μM
EcTolC = assay: microbe, parasite or virus in culture; format: cell-based; settings: Escherichia coli, 18 h, LB medium, read-out: EcTolC %inh. At 50 μM
EcK12 = assay: E. coli growth inhibition, wild-type strain K12; format: cell-based, Escherichia coli; settings: 18 h, LB medium; for inhibition at 50 µM: Escherichia coli, read-out: EcK12 %inh. At 50 μM

T1 sequence (P9WKG7 whole entry): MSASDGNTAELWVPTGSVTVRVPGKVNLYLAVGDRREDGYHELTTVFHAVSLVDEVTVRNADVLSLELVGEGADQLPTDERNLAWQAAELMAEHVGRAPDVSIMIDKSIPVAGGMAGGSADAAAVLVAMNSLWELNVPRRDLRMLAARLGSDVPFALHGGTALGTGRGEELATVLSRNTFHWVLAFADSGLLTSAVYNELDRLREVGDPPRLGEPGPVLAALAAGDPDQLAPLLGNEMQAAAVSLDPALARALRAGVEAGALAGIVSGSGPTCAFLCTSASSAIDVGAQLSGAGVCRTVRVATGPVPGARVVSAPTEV

| Structure (SMILES) | Amplification factors (DCL-4) (MtbIspE [1]; DCL-4, 24 h, 40 mol % MtbIspE) | ΔTm at 20 µM (MtbIspE [2]) [°C] | inhibition at 50 µM (EcTolC) [%] | inhibition at 50 µM (EcK12) [%] | Amplification factors (DCL-3) (MtbIspE [1]; DCL-3, 24 h, 40 mol % MtbIspE, I1 and K1 integrated as one cluster) | EcK12 %inh. At 50 μM (EcK12) | Amplification factor (DCL-2, control compound) (MtbIspE [1]; DCL-2, 40 mol % MtbIspE) |
| --- | --- | --- | --- | --- | --- | --- | --- |
| COc1ccc(-c2cc(/C=N/NC(=O)c3cc(CC(C)C)n[nH]3)no2)cc1 [D6, (E)-3-Isobutyl-N′-((5-(4-methoxyphenyl)isoxazol-3-yl)methylene)-1H-pyrazole-5-carbohydrazide] | 1.0 | < 0.3 | 39 ± 6 | < 10 | – | – | – |
| O=C(N/N=C/c1cc(Cl)ccc1O)c1ccncc1 [L1, (E)-N′-(5-Chloro-2-hydroxybenzylidene)isonicotinohydrazide] | – | < 0.3 | 52 ± 3 | 18 ± 6 | 4.1 | appreciable effect | – |
| O=C(N/N=C/c1ccc(C(F)(F)F)cc1)c1cccc(Cl)c1 [K4, (E)-3-Chloro-N′-(4-(trifluoromethyl)benzylidene)benzohydrazide] | – | 0.7 | 38 ± 4 | 12 ± 4 | – | – | 0.0 |
